Data reported in PubChem BioAssay (NCI).
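How tested: cells in 96-well plates exposed to compound for 48 hours at five concentrations. GI50 marks 50% less growth. Definition used: TGI = concentration required for complete inhibition of growth.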

Key:
Experiment in all cases: growth of human tumour cells (NCI), 48 h
NCI-H23 lung = tested on: NCI-H23 lung
A498 renal = tested on: A498 renal
SN12C renal = tested on: SN12C renal
U251 CNS = tested on: U251 CNS
786-0 renal = tested on: 786-0 renal
CCRF-CEM leukemia = tested on: CCRF-CEM leukemia
UACC-257 melanoma = tested on: UACC-257 melanoma
IGROV1 ovarian = tested on: IGROV1 ovarian
T-47D breast = tested on: T-47D breast
SF-539 CNS = tested on: SF-539 CNS
ACHN renal = tested on: ACHN renal
BT-549 breast = tested on: BT-549 breast
MDA-MB-231 breast = tested on: MDA-MB-231 breast
SR leukemia = tested on: SR leukemia
DU-145 prostate = tested on: DU-145 prostate
SNB-19 CNS = tested on: SNB-19 CNS
MDA-MB-435 = tested on: MDA-MB-435
LOX IMVI melanoma = tested on: LOX IMVI melanoma
M14 melanoma = tested on: M14 melanoma
EKVX NSCLC = tested on: EKVX NSCLC
TK-10 renal = tested on: TK-10 renal
HT29 colon = tested on: HT29 colon
SK-MEL-2 melanoma = tested on: SK-MEL-2 melanoma
SK-OV-3 ovarian = tested on: SK-OV-3 ovarian
HOP-62 NSCLC = tested on: HOP-62 NSCLC
HS 578T breast = tested on: HS 578T breast
A549 NSCLC = tested on: A549 NSCLC
MCF7 breast = tested on: MCF7 breast
NCI/ADR-RES ovarian = tested on: NCI/ADR-RES ovarian
RXF 393 renal = tested on: RXF 393 renal
KM12 colon = tested on: KM12 colon
HL-60(TB) leukemia = tested on: HL-60(TB) leukemia
OVCAR-4 ovarian = tested on: OVCAR-4 ovarian
HOP-92 NSCLC = tested on: HOP-92 NSCLC
PC-3 prostate = tested on: PC-3 prostate
OVCAR-3 ovarian = tested on: OVCAR-3 ovarian
NCI-H522 lung = tested on: NCI-H522 lung
SK-MEL-28 melanoma = tested on: SK-MEL-28 melanoma
SW-620 colon = tested on: SW-620 colon
OVCAR-8 ovarian = tested on: OVCAR-8 ovarian
SK-MEL-5 melanoma = tested on: SK-MEL-5 melanoma
NCI-H226 lung = tested on: NCI-H226 lung
OVCAR-5 ovarian = tested on: OVCAR-5 ovarian
SF-268 CNS = tested on: SF-268 CNS
MOLT-4 leukemia = tested on: MOLT-4 leukemia
UO-31 renal = tested on: UO-31 renal
HCT-116 colon = tested on: HCT-116 colon
NCI-H460 lung = tested on: NCI-H460 lung

COc1cc(-c2nn(-c3ccc(NC(=O)NCCNS(=O)(=O)c4ccc(F)cc4)cc3)cc2-c2ccncc2)ccc1Cl
GI50 (NCI-H23 lung): 632 nM
TGI (NCI-H23 lung): 5180 nM
GI50 (A498 renal): 389 nM
TGI (A498 renal): 2180 nM
GI50 (SN12C renal): 733 nM
TGI (SN12C renal): 8440 nM
GI50 (U251 CNS): 409 nM
TGI (U251 CNS): 2490 nM
GI50 (786-0 renal): 901 nM
TGI (786-0 renal): 6300 nM
GI50 (CCRF-CEM leukemia): 459 nM
TGI (CCRF-CEM leukemia): > 100000 nM
GI50 (UACC-257 melanoma): 1570 nM
TGI (UACC-257 melanoma): 4730 nM
GI50 (IGROV1 ovarian): 795 nM
TGI (IGROV1 ovarian): 8400 nM
GI50 (T-47D breast): 733 nM
TGI (T-47D breast): 5560 nM
GI50 (SF-539 CNS): 281 nM
TGI (SF-539 CNS): 965 nM
GI50 (ACHN renal): 2210 nM
TGI (ACHN renal): 8060 nM
GI50 (BT-549 breast): 782 nM
TGI (BT-549 breast): 4950 nM
GI50 (MDA-MB-231 breast): 650 nM
TGI (MDA-MB-231 breast): 3380 nM
GI50 (SR leukemia): 427 nM
TGI (SR leukemia): 3010 nM
GI50 (DU-145 prostate): 387 nM
TGI (DU-145 prostate): 10800 nM
GI50 (SNB-19 CNS): 857 nM
TGI (SNB-19 CNS): > 100000 nM
GI50 (MDA-MB-435): 170 nM
TGI (MDA-MB-435): 418 nM
GI50 (LOX IMVI melanoma): 556 nM
TGI (LOX IMVI melanoma): 2880 nM
GI50 (M14 melanoma): 324 nM
TGI (M14 melanoma): 1530 nM
GI50 (EKVX NSCLC): 1320 nM
TGI (EKVX NSCLC): > 100000 nM
GI50 (TK-10 renal): 1890 nM
TGI (TK-10 renal): 6330 nM
GI50 (HT29 colon): 318 nM
TGI (HT29 colon): 1230 nM
GI50 (SK-MEL-2 melanoma): 553 nM
TGI (SK-MEL-2 melanoma): 2620 nM
GI50 (SK-OV-3 ovarian): 705 nM
TGI (SK-OV-3 ovarian): 8150 nM
GI50 (HOP-62 NSCLC): 544 nM
TGI (HOP-62 NSCLC): 51000 nM
GI50 (HS 578T breast): 453 nM
TGI (HS 578T breast): 5980 nM
GI50 (A549 NSCLC): 1920 nM
TGI (A549 NSCLC): 23100 nM
GI50 (MCF7 breast): 300 nM
TGI (MCF7 breast): > 100000 nM
GI50 (NCI/ADR-RES ovarian): > 100000 nM
TGI (NCI/ADR-RES ovarian): > 100000 nM
GI50 (RXF 393 renal): 247 nM
TGI (RXF 393 renal): 888 nM
GI50 (KM12 colon): 390 nM
TGI (KM12 colon): 2030 nM
GI50 (HL-60(TB) leukemia): 391 nM
TGI (HL-60(TB) leukemia): 2260 nM
GI50 (OVCAR-4 ovarian): 1040 nM
TGI (OVCAR-4 ovarian): > 100000 nM
GI50 (HOP-92 NSCLC): 1450 nM
TGI (HOP-92 NSCLC): 5910 nM
GI50 (PC-3 prostate): 453 nM
TGI (PC-3 prostate): 4750 nM
GI50 (OVCAR-3 ovarian): 246 nM
TGI (OVCAR-3 ovarian): 665 nM
GI50 (NCI-H522 lung): 295 nM
TGI (NCI-H522 lung): 2700 nM
GI50 (SK-MEL-28 melanoma): 1420 nM
TGI (SK-MEL-28 melanoma): 9290 nM
GI50 (SW-620 colon): 529 nM
TGI (SW-620 colon): 12700 nM
GI50 (OVCAR-8 ovarian): 588 nM
TGI (OVCAR-8 ovarian): 5380 nM
GI50 (SK-MEL-5 melanoma): 453 nM
TGI (SK-MEL-5 melanoma): 1680 nM
GI50 (NCI-H226 lung): 1380 nM
TGI (NCI-H226 lung): 7300 nM
GI50 (OVCAR-5 ovarian): 1210 nM
TGI (OVCAR-5 ovarian): > 100000 nM
GI50 (SF-268 CNS): 629 nM
TGI (SF-268 CNS): 5000 nM
GI50 (MOLT-4 leukemia): 583 nM
TGI (MOLT-4 leukemia): 3990 nM
GI50 (UO-31 renal): 2380 nM
TGI (UO-31 renal): > 100000 nM
GI50 (HCT-116 colon): 339 nM
TGI (HCT-116 colon): 1770 nM
GI50 (NCI-H460 lung): 387 nM
TGI (NCI-H460 lung): 1510 nM
